This is an account of results in US5891917A, “Certain acrylonitrile-sulfonamide derivatives” (Sugen, Inc., priority 1997, dated 1999).

One assay has as its system 3T3/HER2 cells. Briefly: 3T3 Growth Assay (3T3/HER2). Format: cell-based. From the text: (§1) The following examples illustrate the ability of the exemplary compounds to inhibit receptor tyrosine kinases, such as HER2 and/or EGFR. The following target cells were used for cellular kinase assays: NIH3T3 clone C7 (Honegger et al., supra) engineered to over-express human EGF receptor; NIH3T3 cells engineered to over-express a chimeric receptor containing the EGFR extracellular domain and the HER2 intracellular kinase domain; the human mammary carcinoma line BT474 (ATCC HTB2) expressing HER2; and the human glioblastoma line U1242 that expresses PDGFR-beta. Growth assays were carried out using human mammary epithelial SKBR3 (ATCC HTB30) cells (SKBR3 cells over-express HER2), SKOV3 (ATCC HTB77) human ovarian cancer cell line (SKOV3 cells also over-express HER2), A431 cells (A431 cells over-express EGFR) MCF7 human breast carcinoma cells, MCF7 cells overexpressing the HER2 kinase (MCF7-HER2), NIH3T3 cells, and NIH3T3 cells overexpressing the HER2 kinase (3T3-HER2.
The 3T3 growth assay was carried out as follows: […]
(1) HER2C7 (engineered to express HER2) and NIH3T3C7 (as the control) cells are used for this assay. NIH3T3C7 cells are seeded at 2500 cells/well, […] in 10% CS+2 mM GLN DMEM, in a 96 well plate; HER2C7 cells are seeded at 6000 cells/well, 100 μl/well in 2% FBS+2 mM GLN DMEM, in a 96 well plate. Cells are incubated at 37° C., 5% CO2 overnight to allow for cell attachment to the plate;
(2) The […] compound is added to the cells at day 2. The compounds are prepared in the appropriate growth medium (10% CS+2 mM) GLN DMEM for NIH3T3C7 cells; 2% FBS+2 mM GLN DMEM for HER2C7 cells) in a 96 well plate, and serially diluted. A total of 100 μl/well medium of the diluted compounds is added into the cells. The total volume of each well is 200 μl. Quadruplicates (wells) and 11 concentration points are applied to each compound tested.
(3) After the cells are treated with the compound for 4 days, the cells are washed with PBS and fixed with 200 μl/well ice-cold 10% TCA for one hour at 0°-5° C. condition.
(4) Remove TCA and rinse wells 5 times with deionized water. Dry plates upside down with paper towels. Stain cells with 0.4% SRB at 100 μl/well for 10 minutes.
(5) Pour off SRB and rinse plate 5 times with 1 % acetic acid. Dry plate completely.
(6) Solubilize the dye with 10 mM Tris-base at 100 μl/well for 10 minutes on a shaker.
(7) Read the plate at dual wavelengths at 570 nm and 630 nm on Dynatech Elisa plate reader.

For the next assay, the target named is T1, EGFR (Homo sapiens, UniProt P00533).
T1 construct: expressed in transfected cells; host or cells: NIH3T3 clone C7 (EGFR/C7, Honegger et al.)
T1 sequence (P00533 25-1210): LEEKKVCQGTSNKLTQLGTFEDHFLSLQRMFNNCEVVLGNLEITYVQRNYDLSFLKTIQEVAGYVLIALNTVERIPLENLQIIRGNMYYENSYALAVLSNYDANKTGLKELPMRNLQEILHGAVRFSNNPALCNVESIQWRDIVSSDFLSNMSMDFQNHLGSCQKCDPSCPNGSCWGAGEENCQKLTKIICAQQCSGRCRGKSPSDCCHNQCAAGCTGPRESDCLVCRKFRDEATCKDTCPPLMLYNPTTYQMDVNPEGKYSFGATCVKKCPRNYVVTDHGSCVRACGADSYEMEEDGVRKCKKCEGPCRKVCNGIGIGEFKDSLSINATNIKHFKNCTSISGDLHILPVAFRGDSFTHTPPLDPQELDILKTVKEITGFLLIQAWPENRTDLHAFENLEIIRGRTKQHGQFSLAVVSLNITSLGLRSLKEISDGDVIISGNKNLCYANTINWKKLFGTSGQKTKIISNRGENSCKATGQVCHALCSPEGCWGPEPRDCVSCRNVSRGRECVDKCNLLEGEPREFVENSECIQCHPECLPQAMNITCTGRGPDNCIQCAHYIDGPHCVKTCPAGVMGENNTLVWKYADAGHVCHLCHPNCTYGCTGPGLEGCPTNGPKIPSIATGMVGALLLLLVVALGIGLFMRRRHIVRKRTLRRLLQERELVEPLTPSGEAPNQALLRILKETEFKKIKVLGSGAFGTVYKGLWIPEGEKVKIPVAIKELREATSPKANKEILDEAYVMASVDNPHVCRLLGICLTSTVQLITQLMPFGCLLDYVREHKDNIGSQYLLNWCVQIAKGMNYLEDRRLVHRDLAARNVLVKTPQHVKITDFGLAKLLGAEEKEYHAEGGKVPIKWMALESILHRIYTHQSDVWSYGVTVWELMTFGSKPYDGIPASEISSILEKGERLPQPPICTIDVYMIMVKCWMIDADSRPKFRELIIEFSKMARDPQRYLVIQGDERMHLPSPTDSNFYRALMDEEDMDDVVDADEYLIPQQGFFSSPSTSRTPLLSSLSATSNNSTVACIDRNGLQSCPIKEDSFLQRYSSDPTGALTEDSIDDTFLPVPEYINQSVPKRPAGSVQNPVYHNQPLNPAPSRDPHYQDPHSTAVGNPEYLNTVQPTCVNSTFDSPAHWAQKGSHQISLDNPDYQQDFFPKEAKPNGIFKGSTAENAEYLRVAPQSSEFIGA
Briefly: EGFR Whole Cell Kinase Assay (ELISA). The note with it: EGFR/C7 (NIH3T3) cells, 25 nM EGF. Format: cell-based.
Excerpt: as §1
EGFR Whole Cell Kinase Assay
EGFR kinase activity (EGFR-3T3 assay) in whole cells was measured as described below:
A. Coat ELISA plates (Corning, 96 well, Cat. #25805-96) with 05-101 antibody at 0.5 μg per well in PBS, 150 μl final volume/well, and store overnight at 4° C. Coated plates are good for up to 10 days when stored at 4° C.
B. On day of use, remove coating buffer and replace with blocking buffer (5% Carnation Instant NonFat Dry Milk in PBS). Incubate the plate, shaking, at room temperature (about 23° C. to 25° C.) for 30 minutes. Just prior to use, remove blocking buffer and wash plate 4 times with TBST buffer.
A. EGFR/C7 cell line (Honegger, et al., supra) can be used for this assay.
B. Choose dishes having 80-90% confluence for the experiment. Trypsinize cells and stop reaction by adding 10% CS DMEM medium. Suspend cells in DMEM medium (10% CS DMEM medium) and centrifuge once at 1000 rpm, and once at room temperature for 5 minutes.
C. Resuspend cells in seeding medium (DMEM, 0.5% bovine serum), and count the cells using trypan blue. Viability above 90% is acceptable. Seed cells in DMEM medium (0.5% bovine serum) at a density of 10,000 cells per well, 100 μl per well, in a 96 well microtiter plate. Incubate seeded cells in 5% CO2 at 37° C. for about 40 hours.
A. Check seeded cells for contamination using an inverted microscope. Dilute drug stock (10 mg/ml in DMSO) 1:10 in DMEM medium, then transfer 5 μl to a test well for a final drug dilution of 1:200 and a final DMSO concentration of […]. Control wells receive DMSO alone. Incubate in 5% CO2 at 37° C. for one hour.
B. Prepare EGF ligand: dilute stock EGF in DMEM so that upon transfer of 10 μl dilute EGF (1:12 dilution), 25 nM final concentration is attained.
D. After two hours incubation with drug, add prepared EGF ligand to cells, 10 μl per well, to yield a final concentration of 25 nM. Control wells receive DMEM alone. Incubate, shaking, at room temperature, for 5 minutes.
E. Remove drug, EGF, and DMEM. Wash cells twice with PBS. Transfer HNTG* to cells, 100 μl per well. Place on ice for 5 minutes. Meanwhile, remove blocking buffer from other ELISA plate and wash with TBST as described above.
F. With a pipette tip securely fitted to a micropipettor, scrape cells from plate and homogenize cell material by repeatedly aspirating and dispensing the HNTG* lysis buffer. Transfer lysate to a coated, blocked, and washed ELISA plate. Incubate shaking at room temperature for one hour.
G. Remove lysate and wash 4 times with TBST. Transfer freshly diluted anti-Ptyr antibody to ELISA plate at 100 μl per well. Incubate shaking at room temperature for 30 minutes in the presence of the anti-Ptyr antiserum (1:3000 dilution in TBST).
H. Remove the anti-Ptyr antibody and wash 4 times with TBST. Transfer the freshly diluted TAGO 30 anti-rabbit IgG antibody (anti-rabbit IgG antibody: 1:3000 dilution in TBST) to the ELISA plate at 100 μl per well. Incubate shaking at room temperature for 30 minutes. […]

Setting [1] is: read-out: Growth Data: 3T3/HER2 2% FBS.
Where [2] appears, read: read-out: Growth Data: 3T3/HER2 10% FBS.

Each structure is given as a SMILES string. Read-outs that look alike come from different tables or passages of the source. Some results are limits rather than exact numbers.

Take `CC(C)c1cc(/C=C(\C#N)S(=O)(=O)NCc2ccccc2)cc(C(C)C)c1O` [Compound 732]: the IC50 in the assay with 3T3/HER2 cells (setting [1]) was determined as 15 µM; in the assay with 3T3/HER2 cells (setting [2]), 95 µM; at EGFR, 58 µM.
For the compound `N#C/C(=C\c1ccc(O)c(O)c1)S(=O)(=O)c1cccs1` [Compound 743, (E)-3-(3,4-Dihydroxyphenyl)-2-[(thien-2-yl)sulfonyl]acrylonitrile], at EGFR, the IC50 is over 100 µM.
`CC(C)(C)c1cc(/C=C(\C#N)S(=O)(=O)c2ccc(F)cc2)cc(C(C)(C)C)c1O` [Compound 740]: the IC50 in the assay with 3T3/HER2 cells (setting [1]) was 3.8 µM; in the assay on 3T3/HER2 cells (setting [2]) it was 20 µM; against EGFR it was over 100 µM.
`CC(C)c1cc(/C=C(\C#N)S(=O)(=O)c2ccc(F)cc2)cc(C(C)C)c1O` [Compound 741, (E)-3-(3,5-Diisopropyl-4-hydroxyphenyl)-2-(4-fluorophenylsulfonyl)acrylonitrile]: the IC50 turned out to be 15 µM in the assay with 3T3/HER2 cells (setting [1]), 75 µM in the assay on 3T3/HER2 cells (setting [2]) and 52.7 µM against EGFR.
Turning to `N#C/C(=C\c1ccc(O)cc1Cl)S(=O)(=O)NCc1ccccc1` [Compound 733], the IC50 was 60 µM in the assay with 3T3/HER2 cells (setting [1]), over 100 µM in the assay on 3T3/HER2 cells (setting [2]) and over 100 µM against EGFR.
With `CC(C)(C)c1cc(/C=C(\C#N)S(=O)(=O)c2cccs2)cc(C(C)(C)C)c1O` [Compound 742], the IC50 was 7 µM with 3T3/HER2 cells (setting [1]), 38 µM in the assay on 3T3/HER2 cells (setting [2]) and over 100 µM at EGFR.
The compound `Cc1cc(/C=C(\C#N)S(=O)(=O)Cc2cccc(C(F)(F)F)c2)cc(C)c1O` [Compound 739] displayed an IC50 against EGFR of over 100 µM.
As for `Cc1cc(/C=C(\C#N)S(=O)(=O)c2ccccc2)cc(C)c1O` [Compound 748], the IC50 in the assay on 3T3/HER2 cells (setting [1]) and in the assay with 3T3/HER2 cells (setting [2]) was over 100 µM throughout.
For `Cc1cc(/C=C(\C#N)S(=O)(=O)c2ccc(F)cc2)cc(C)c1O` [Compound 744], the IC50 with 3T3/HER2 cells (setting [1]), with 3T3/HER2 cells (setting [2]) and on EGFR was over 100 µM each time.
Regarding `CC(C)c1cc(/C=C(\C#N)S(=O)(=O)/C(C#N)=C/c2cc(C(C)C)c(O)c(C(C)C)c2)cc(C(C)C)c1O` [Compound 745], the IC50 at EGFR was under 100 µM.
Consider `N#C/C(=C\c1ccc(O)cc1Cl)S(=O)(=O)NCCCc1ccccc1` [Compound 734], for which the IC50 in the assay with 3T3/HER2 cells (setting [1]) is 55 µM; in the assay with 3T3/HER2 cells (setting [2]) it was over 100 µM; on EGFR, over 100 µM.
As for `CC(C)c1cc(/C=C(\C#N)S(=O)(=O)c2ccccc2)cc(C(C)C)c1O` [Compound 731], the IC50 with 3T3/HER2 cells (setting [1]) was found to be 12 µM; in the assay on 3T3/HER2 cells (setting [2]), 70 µM; at EGFR it was 73.2 µM.
Consider `CC(C)(C)c1cc(/C=C(\C#N)S(=O)(=O)c2ccsc2)cc(C(C)(C)C)c1O` [Compound 746], for which the IC50 is 7 µM with 3T3/HER2 cells (setting [1]), 40 µM in the assay with 3T3/HER2 cells (setting [2]) and over 100 µM against EGFR.
Turning to `CC(C)c1cc(/C=C(\C#N)S(=O)(=O)c2ccsc2)cc(C(C)C)c1O` [Compound 738], the IC50 was 45 µM in the assay on 3T3/HER2 cells (setting [1]), over 100 µM in the assay with 3T3/HER2 cells (setting [2]) and 79.2 µM against EGFR.
For the compound `CC(C)c1cc(/C=C(\C#N)S(=O)(=O)Cc2cccc(C(F)(F)F)c2)cc(C(C)C)c1O` [Compound 736], the IC50 with 3T3/HER2 cells (setting [1]) was 18 µM; in the assay with 3T3/HER2 cells (setting [2]), 55 µM; on EGFR it was 100 µM.
In the same order, the values of `CC(C)c1cc(/C=C(\C#N)S(=O)(=O)c2cccs2)cc(C(C)C)c1O` [Compound 737] are 40 µM, 90 µM and 77 µM.
`CC(C)c1cc(/C=C(\C#N)S(=O)(=O)c2ccccn2)cc(C(C)C)c1O` [Compound 747]: the IC50 in the assay with 3T3/HER2 cells (setting [1]) and with 3T3/HER2 cells (setting [2]) was over 100 µM in each case.
In the case of `CC(C)(C)c1cc(/C=C(\C#N)S(=O)(=O)Cc2cccc(C(F)(F)F)c2)cc(C(C)(C)C)c1O` [Compound 735], the figures for the IC50 in the assay on 3T3/HER2 cells (setting [1]) and in the assay on 3T3/HER2 cells (setting [2]) were 5 µM and 22 µM, respectively.
